Reference: PMC9104013, “Role of Polyamine-Induced Dimerization of Antizyme in Its Cellular Functions” (International Journal of Molecular Sciences, 2022)

Key:
[1] = tested on: spermidine/spermine-N^1-acetyltransferase (SSAT); design: method as in PMID 21639123; conditions: cited from earlier work
[2] = tested on: DU145 cells; test: Intracellular polyamine and analogue concentrations in DU145 cells (HPLC); type: cell-based; conditions: 4 h, 100 µM analogue, 1 mM AG
Method: The DU145 cell line was obtained from American Type Culture Collection, Manassas, VA, USA. OAZ1-overexpressing DU145 cells were generated as described earlier. The cells were cultured in humidified atmosphere at +37 °C, 10% CO2 in high-glucose Dulbecco’s Modified Eagle’s Medium supplemented with 10% heat-inactivated fetal bovine serum, 2 mM L-glutamine, and 50 μg/mL gentamycin. The cells were lysed in a buffer containing 50 mM potassium phosphate, pH 7.2, 0.1 mM EDTA, 0.1% Triton X-100, 1 mM dithiothreitol (DTT), and Complete EDTA-free protease inhibitor (Roche Diagnostics, Basel, Switzerland). Aliquots of the lysate were taken for polyamine measurement, and the rest was centrifuged at 13,000 rpm for 20 min at +4 °C. The supernatant was used for enzyme assays and Western blotting.
Polyamines were measured with HPLC according to the published method. Acid-precipitated pellets were dissolved to 0.1 M NaOH, and the amount of DNA was measured using the PicoGreen reagent (Invitrogen) according to manufacturer’s instructions using dilutions of calf thymus DNA (Sigma-Aldrich) as standard curve. Protein concentrations were measured using Bio-Rad protein kit with dilutions of bovine serum albumin (Bio-Rad, Hercules, CA, USA) as standards. ODC activities were measured from the cytosolic fractions as described earlier. For immunoblotting of OAZ1, 20–50 μg of total protein was separated on a 15% SDS-polyacrylamide gel, transferred to a membrane (Immobilon FL, Millipore, Burlington, MA, USA), and immunoblotted with rabbit anti-OAZ1 antibody (a kind gift from Prof. Olli Jänne, University of Helsinki, Finland) and rabbit antiactin (Santa Cruz Biotechnology, cat no sc-1616, used at 1:1000 dilution in 5% nonfat dry milk/PBS-Tween). The secondary antibody used was goat antirabbit (Santa Cruz Biotechnology, Dallas, TX, USA, cat no sc-2004, used at 1:10,000 dilution).

[3] = tested on: 72-mer-2'-O-Me-oligoribonucleotide L-OM, containing the +1 frameshift site, hairpin and pseudoknot of the mOAZ1 mRNA; test: RNA melting point (UV thermal denaturation); type: binding, mouse; conditions: for Tm: 1 μM L-OM, 50 mM Tris-HCl pH 7.5, 50 mM NaCl
Method: UV thermal denaturation data were obtained on a Hitachi U-2900 spectrophotometer equipped with a Peltier temperature controller. The concentration of model 72-mer-2′-O-Me-oligoribonucleotide L-OM, containing the +1 frameshift site, hairpin, and pseudoknot of the mOAZ1 mRNA was 1 µM. Samples were dissolved in 50 mM Tris-HCl, pH 7.5 and 50 mM NaCl buffer. Concentration of oligonucleotide was determined after quantitating the samples by UV absorbance at λ = 260 nm. Samples were heated to 90 °C for 10 min then cooled slowly to room temperature and stored at 5 °C for at least 18 h before the measurements were performed. Denaturation curves were acquired at 260 nm for the duplexes at a rate of 0.5 °C/min, within a range of 30–90 °C. The Tm values were determined from polynomial fitting of the observed curves and taken as the temperatures corresponding to half-dissociation of complex. The first derivative of absorption with respect to temperature, dA/dT, of the melting curve was computer-generated by the GraphPad Prism 7.0 software and used for the determining of Tm.

[4] = tested on: +1 frameshifting of eukaryotic OAZ1 mRNA; test: Bicistronic β-galactosidase/firefly luciferase +1 frameshift reporter assay; type: cell-based, S. cerevisiae IS532/44d
Text: For this purpose, the earlier developed frameshift reporter system, which includes quadruple S. cerevisiae mutant strain IS532/44d, unable to synthesize and degrade polyamines due to deletion of genes FMS1, SPE1, SPE2, and PAA1, and the plasmids pAC98T-OAZ1-FS and pAC98T-OAZ1-Cont were used. Each of these plasmids bears the reporter gene encoding β-galactosidase and firefly luciferase gene fused with the fragment of eukaryotic OAZ1 containing frameshift site. The plasmid pAC98T-OAZ1-FS contains native eukaryotic OAZ1 fragment, so the efficiency of luciferase synthesis and enzymatic activity depend on the +1 frameshift event. The plasmid pAC98T-OAZ1-Cont contains the eukaryotic OAZ1 fragment with […] replaced by TGG tryptophan codon that enables constitutive synthesis of both β-galactosidase and luciferase whose activity is taken as 100%. Bicistronic assays for frameshifting were performed as described earlier with the following modifications. Yeast transformants of IS532/44d strain were grown on agar plates with the synthetic media containing 0.67% (w/v) Yeast Nitrogen Base without amino acids (Sigma), 2% (w/v) glucose, 2% (w/v) agar, mixture of 19 amino acids without leucine (2 mg/mL each), and adenine (2 mg/mL) at 30 °C for 5–7 days. Then, colonies of yeast transformants were grown in the synthetic media lacking leucine and polyamines for two days. Yeast cultures were diluted to OD600 = 0.1 in 5 mL of synthetic media lacking leucine and supplemented with either Spd, 1-MeSpd, 2-MeSpd, or 3-MeSpd, each at final concentrations of 0.25, 0.5, 1, 2, and 4 mM. Yeast cultures were grown to log phase (OD600 = 0.8–1.4) at 30 °C and harvested by centrifugation, and cell pellets were washed three times with water. Cell pellets were resuspended in 500 μL of buffer containing 60 mM NaH2PO4, 40 mM Na2HPO4, 10 mM KCl, 1 mM MgSO4, 50 mM 2-mercaptoethanol, and 10% glycerol and lysed by vortexing with acid-washed glass beads (Sigma). The lysates were centrifuged (15,000× g, 10 min, 4 °C), and the supernatants were used for β-galactosidase and firefly luciferase reporter gene assays. β-Galactosidase activity was analyzed using ο-nitrophenyl-β-D-galactopyranoside (Sigma) as the substrate in accordance with published protocol. Activity of firefly luciferase was analyzed in 96-well plates using Luciferase Assay System (Promega). Frameshift frequencies were calculated as described.

[5] = tested on: spermine synthase (SpmSy); design: method as in PMID 21639123; conditions: cited from earlier work
[6] = polyamine concentration 20 μM, without polyamine 65.5±0.6

Compound | Substrate of SSAT [1] | Intracellular Analogue [2] [pmol/µg DNA] | Intracellular N1-AcSpd [2] [pmol/µg DNA] | Intracellular Put [2] [pmol/µg DNA] | Intracellular Spd [2] [pmol/µg DNA] | Intracellular Spm [2] [pmol/µg DNA] | Spd + MeSpd [2] [pmol/µg DNA] | Spd + Spm + MeSpd [2] [pmol/µg DNA] | Total polyamines [2] [pmol/µg DNA] | Tm [3, 6] [°C] | Tm ([3]; polyamine concentration 50 μM) [°C] | Tm ([3]; polyamine concentration 200 μM) [°C] | Frameshifting activity ([4]; 0.25 mM in medium) | Frameshifting activity ([4]; 2.0 mM and 4.0 mM in medium) | Substrate of spermine synthase (SpmSy) [5] | Tm lower compared with Spd and the other analogues [3] | Frameshifting activity ([4]; all concentrations tested (0.25-4 mM))
CC(N)CCNCCCCN (stereo not drawn) [1-MeSpd] | not a substrate of SSAT | 170 ± 9.7 | 7.1 ± 0.2 | 9.5 ± 0.5 | 62.0 ± 3.9 | 74.0 ± 7.2 | 232 | 306 | 323 | 73.0±0.4 | 74.0±0.3 | 80.2±0.6 | about the same as Spd | weaker inducers of the frameshifting than Spd | is a substrate of spermine synthase | – | –
CC(CN)CNCCCCN (stereo not drawn) [2-MeSpd] | substrate of both SSAT and SpmSy | 126 ± 14.5 | 4.9 ± 0.3 | 21.1 ± 0.7 | 70.2 ± 2.3 | 83.5 ± 6.8 | 196 | 279 | 306 | 70.5±0.5 | 73.4±0.4 | 77.5±0.5 | – | – | substrate of both SSAT and SpmSy | 2–3 °C | substantially weaker inducer of +1 frameshift event than the other compounds
CC(CCN)NCCCCN (stereo not drawn) [3-MeSpd] | not a substrate of either SSAT or SpmSy | – | 5.9 ± 1.1 | 11.1 ± 0.2 | 65.3 ± 3.9 | 78.4 ± 5.8 | 168 | – | 264 | 71.9±0.5 | 75.2±0.4 | 79.4±0.5 | – | weaker inducers of the frameshifting than Spd | not a substrate of either SSAT or SpmSy | – | –
NCCCCNCCCN [Spd, spermidine] | – | – | – | – | – | – | – | – | – | 73.7±0.6 | 75.3±0.4 | 79.7±1.1 | – | – | – | – | –
